{"source": "patent US9376420B2", "about": "(YUHAN CORPORATION, priority 2012, dated 2016)", "biological_target": "T1, human LXRβ (Homo sapiens, UniProt P55055)", "T1 construct": "expressed in transfected cells; host or cells: HEK293 cells (ATCC CRL-1573), transient transfection with pFA-hLXRβ/GAL4 and pUAS", "T1 sequence (P55055 222-460 limits assumed)": "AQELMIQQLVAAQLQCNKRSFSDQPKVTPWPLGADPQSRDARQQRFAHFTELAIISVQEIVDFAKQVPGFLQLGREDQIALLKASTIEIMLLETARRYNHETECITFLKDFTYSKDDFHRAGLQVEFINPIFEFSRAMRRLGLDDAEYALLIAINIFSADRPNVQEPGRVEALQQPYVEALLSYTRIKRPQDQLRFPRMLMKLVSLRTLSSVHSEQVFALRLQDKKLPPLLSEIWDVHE", "assay": "Assay for Transcriptional Activity of LXRβ (GAL4-hLXRβ LBD luciferase reporter, transient transfection)", "type": "cell-based", "settings": "HEK293 cells transfected with pFA-hLXRβ/GAL4 and pUAS, 24 hours; for Emax: fold value in comparison with the control (DMSO-treated group); for EC50: increase of transcriptional activity of LXRβ, average of three independent tests", "excerpt": "The ligand-binding domain (LBD) cDNA of human LXRβ was inserted into an expression vector (pFA, Stratagene, USA) site adjacent to the yeast GAL4 transcription factor DNA binding domain to prepare an expression construct (pFA-hLXRβ/GAL4) (Willey et al., Genes & Development 9 1033-1045 (1995). The GAL4-responsive luciferase reporter plasmid, i.e., pUAS (Stratagene, USA), contained five copies of the GAL4 response element placed adjacent to the promoter and the luciferase reporter gene. The pFA-hLXRβ/GAL4 and pUAS were introduced into mammalian cells through transient transfection, followed by measuring the transcriptional activity of LXRβ.\nHEK293 cells (human kidney cells, sATCC, CRL-1573) were incubated at a T-75 flask containing a DMEM supplemented with 10% fetal bovine serum (FBS) in a 37° C., until they reach about 70˜80% confluency. The culture media containing the cells was added to each well of a 96-well plate in a density of 5×10^4 cells per well. The pFA-hLXRβ/GAL4 and pUAS was transfected to the cells using a cationic-lipid transfection reagent (Lipofectamine™, Invitrogen), through culturing at 37° C. for 3 hours for transient transfection according to the manufacturer's instruction. The test compounds were dissolved in dimethyl sulfoxide (DMSO) in the concentrations of 50, 30, 10, 3, 1, 0.3, 0.1, 0.03, and 0.01 μM and then cells were treated with the prepared compound-containing solution (100 μl). The cells were incubated at 37° C. for 24 hours. After removal of the medium from each well, the lysis buffer (25 mM Tricine pH7.8, 2 mM DTT, 2 mM EGTA, 10% glycerol, 1% Triton X-100) was added with the amount of 20 μl per each well, and the plate was stirred at room temperature for 15 minutes. The luciferase reagent (prepared by adding 10 ml of the luciferase buffer (Promega) to 1 vial of the luciferase substrate (Promega)) was added to each well with the amount of 100 μl per well, followed by assaying with a luminometer according to the manufacturer's instruction.\nThe dose-response curve for calculating the EC50 values of the test compounds on the increase of transcriptional activity of LXRβ was prepared using the known LXR agonist (i.e., N-(2,2,2-trifluoro-ethyl)-N-[4-(2,2,2-trifluoro-1-hydroxy-1-trifluoromethyl-ethyl)-phenyl]-benzenesulfonamide) as a positive control and the vehicle (DMSO) as a negative control. The dose-response curve was produced from the 9-point curve having different concentrations at a 1/2 log unit. The EC50 value of a test compound, which is defined as a concentration for initiating the reaction corresponding to the half value between the Top value (i.e., the maximum value) and the Bottom value (baseline), was calculated according to the following equation. Y=Bottom+(Top-Bottom)/(1+10^((log EC50-X)*Hill Slope)).\nIn the above equation, Y is the observed value; X is the log concentration; Hill Slope is the slope of the curve; and Top and Bottom are the maximum value of test compound and the baseline value, respectively.\nThe following tables 1 and 2 show the EC50 values of the test compounds measured as in the above. In the tables 1 and 2, each EC50 value represents an average value obtained from three independent tests."}
{"compound": "CN(CCO)S(=O)(=O)c1ccc(-c2cccc(C3CC(C(F)(F)C(F)(F)F)=NN3c3ccc(F)cc3F)c2)cc1", "note": "(stereo not drawn) [Example 88, 1-(2,4-difluoro-phenyl)-5-{4′-[(2-hydroxy-ethyl)-methyl-sulfamoyl]-biphenyl-3-yl}-3-pentafluoroethyl-4,5-dihydro-1H-pyrazole]", "values": [{"measurement": "Emax", "value": 72, "unit": "fold"}, {"measurement": "EC50", "value": 819, "unit": "nM"}]}
{"compound": "CNCCCS(=O)(=O)c1cccc(-c2cccc(C3CC(C(F)(F)C(F)(F)F)=NN3c3ccc(F)cc3F)c2)c1", "note": "(stereo not drawn) [Example 89, 1-(2,4-difluoro-phenyl)-5-{3′-[3-(N-methyl-amino)-propane-1-sulfonyl]-biphenyl-3-yl}-3-pentafluoroethyl-4,5-dihydro-1H-pyrazole]", "values": [{"measurement": "Emax", "value": 106, "unit": "fold"}, {"measurement": "EC50", "value": 382, "unit": "nM"}]}
{"compound": "COc1ncc(-c2cccc(C3CC(C(F)(F)C(F)(F)F)=NN3c3ccc(F)cc3F)c2)cc1CO", "note": "(stereo not drawn) [Example 90, 1-(2,4-difluoro-phenyl)-5-[3-(5-hydroxymethyl-6-methoxy-pyridin-3-yl)-phenyl]-3-pentafluoroethyl-4,5-dihydro-1H-pyrazole]", "values": [{"measurement": "Emax", "value": 33, "unit": "fold"}, {"measurement": "EC50", "value": 2650, "unit": "nM"}]}
{"compound": "OCc1ccc(-c2cccc(C3CC(C(F)(F)C(F)(F)F)=NN3c3ccc(F)cc3F)c2)nc1", "note": "(stereo not drawn) [Example 91, 1-(2,4-difluoro-phenyl)-5-[3-(5-hydroxymethyl-pyridin-2-yl)-phenyl]-3-pentafluoroethyl-4,5-dihydro-1H-pyrazole]", "values": [{"measurement": "Emax", "value": 44, "unit": "fold"}, {"measurement": "EC50", "value": 1460, "unit": "nM"}]}
{"compound": "CS(=O)(=O)c1ccc(-c2cccc(C3CC(C(F)(F)C(F)(F)F)=NN3c3ccc(F)cc3F)c2)cn1", "note": "(stereo not drawn) [Example 92, 1-(2,4-difluoro-phenyl)-5-[3-(6-methanesulfonyl-pyridin-3-yl)-phenyl]-3-pentafluoroethyl-4,5-dihydro-1H-pyrazole]", "values": [{"measurement": "Emax", "value": 81, "unit": "fold"}, {"measurement": "EC50", "value": 344, "unit": "nM"}]}
{"compound": "Fc1ccc(N2N=C(C(F)(F)C(F)(F)F)CC2c2cccc(-c3ccccc3)c2)c(F)c1", "note": "(stereo not drawn) [Example 94, 5-biphenyl-3-yl-1-(2,4-difluoro-phenyl)-3-pentafluoroethyl-4,5-dihydro-1H-pyrazole]", "values": [{"measurement": "Emax", "value": 27, "unit": "fold"}, {"measurement": "EC50", "value": 19000, "unit": "nM"}]}
{"compound": "CS(=O)(=O)N1CCN(c2cccc(C3CC(C(F)(F)C(F)(F)F)=NN3c3ccc(F)cc3F)c2)CC1", "note": "(stereo not drawn) [Example 96, 1-(2,4-difluoro-phenyl)-5-[3-(4-methanesulfonyl-piperazin-1-yl)-phenyl]-3-pentafluoroethyl-4,5-dihydro-1H-pyrazole]", "values": [{"measurement": "Emax", "value": 67, "unit": "fold"}, {"measurement": "EC50", "value": 3360, "unit": "nM"}]}
{"compound": "O=S(=O)(C1CC1)N1CCN(c2cccc(C3CC(C(F)(F)C(F)(F)F)=NN3c3ccc(F)cc3F)c2)CC1", "note": "(stereo not drawn) [Example 97, 5-[3-(4-cyclopropanesulfonyl-piperazin-1-yl)-phenyl]-1-(2,4-difluoro-phenyl)-3-pentafluoroethyl-4,5-dihydro-1H-pyrazole]", "values": [{"measurement": "Emax", "value": 69, "unit": "fold"}, {"measurement": "EC50", "value": 3090, "unit": "nM"}]}
{"compound": "CSc1ccc(-c2cccc(C3CC(C(F)(F)C(F)(F)F)=NN3c3ccccc3Cl)c2)cc1", "note": "(stereo not drawn) [Example 105, 1-(2-chloro-phenyl)-5-(4′-methylsulfanyl-biphenyl-3-yl)-3-pentafluoroethyl-4,5-dihydro-1H-pyrazole]", "values": [{"measurement": "Emax", "value": 55, "unit": "fold"}, {"measurement": "EC50", "value": 6310, "unit": "nM"}]}
{"compound": "CS(=O)(=O)c1ccc(-c2cccc(C3CC(C(F)(F)C(F)(F)F)=NN3c3ccccc3Cl)c2)cc1", "note": "(stereo not drawn) [Example 106, 1-(2-chloro-phenyl)-5-(4′-methylsulfonyl-biphenyl-3-yl)-3-pentafluoroethyl-4,5-dihydro-1H-pyrazole]", "values": [{"measurement": "Emax", "value": 85, "unit": "fold"}, {"measurement": "EC50", "value": 1160, "unit": "nM"}]}
{"compound": "CC(O)c1ccc(-c2cccc(C3CC(C(F)(F)C(F)(F)F)=NN3c3ccccc3Cl)c2)cc1", "note": "(stereo not drawn) [Example 108, 1-(2-chloro-phenyl)-5-[4′-(1-hydroxy-ethyl)-biphenyl-3-yl]-3-pentafluoroethyl-4,5-dihydro-1H-pyrazole]", "values": [{"measurement": "Emax", "value": 44, "unit": "fold"}, {"measurement": "EC50", "value": 993, "unit": "nM"}]}
{"compound": "Oc1cccc(-c2cccc(C3CC(C(F)(F)C(F)(F)F)=NN3c3ccccc3Cl)c2)c1", "note": "(stereo not drawn) [Example 111, 1-(2-chloro-phenyl)-5-(3′-hydroxy-biphenyl-3-yl)-3-pentafluoroethyl-4,5-dihydro-1H-pyrazole]", "values": [{"measurement": "Emax", "value": 41, "unit": "fold"}, {"measurement": "EC50", "value": 4150, "unit": "nM"}]}
